From patent publication US20250129074A1, “CHIMERIC COMPOUND FOR TARGETED DEGRADATION OF ANDROGEN RECEPTOR PROTEIN, PREPARATION METHOD THEREFOR, AND MEDICAL USE THEREOF” (Jiangsu Hengrui Pharmaceuticals Co., Ltd., priority 2021, published 2025)
Read-outs that look alike come from different tables or passages of the source.

Columns and labels:
[1] = molecular target: T1, androgen receptor (AR) (Homo sapiens, UniProt P10275, T878A); experiment: Degradation activity on androgen receptor in LNCaP cells (AR ELISA); format: cell-based; details: for Dmax: read-out: Max (maximum AR degradation rate)
T1 construct: host or cells: LNCaP human prostate cancer cells
T1 sequence (P10275 1-920 T878A): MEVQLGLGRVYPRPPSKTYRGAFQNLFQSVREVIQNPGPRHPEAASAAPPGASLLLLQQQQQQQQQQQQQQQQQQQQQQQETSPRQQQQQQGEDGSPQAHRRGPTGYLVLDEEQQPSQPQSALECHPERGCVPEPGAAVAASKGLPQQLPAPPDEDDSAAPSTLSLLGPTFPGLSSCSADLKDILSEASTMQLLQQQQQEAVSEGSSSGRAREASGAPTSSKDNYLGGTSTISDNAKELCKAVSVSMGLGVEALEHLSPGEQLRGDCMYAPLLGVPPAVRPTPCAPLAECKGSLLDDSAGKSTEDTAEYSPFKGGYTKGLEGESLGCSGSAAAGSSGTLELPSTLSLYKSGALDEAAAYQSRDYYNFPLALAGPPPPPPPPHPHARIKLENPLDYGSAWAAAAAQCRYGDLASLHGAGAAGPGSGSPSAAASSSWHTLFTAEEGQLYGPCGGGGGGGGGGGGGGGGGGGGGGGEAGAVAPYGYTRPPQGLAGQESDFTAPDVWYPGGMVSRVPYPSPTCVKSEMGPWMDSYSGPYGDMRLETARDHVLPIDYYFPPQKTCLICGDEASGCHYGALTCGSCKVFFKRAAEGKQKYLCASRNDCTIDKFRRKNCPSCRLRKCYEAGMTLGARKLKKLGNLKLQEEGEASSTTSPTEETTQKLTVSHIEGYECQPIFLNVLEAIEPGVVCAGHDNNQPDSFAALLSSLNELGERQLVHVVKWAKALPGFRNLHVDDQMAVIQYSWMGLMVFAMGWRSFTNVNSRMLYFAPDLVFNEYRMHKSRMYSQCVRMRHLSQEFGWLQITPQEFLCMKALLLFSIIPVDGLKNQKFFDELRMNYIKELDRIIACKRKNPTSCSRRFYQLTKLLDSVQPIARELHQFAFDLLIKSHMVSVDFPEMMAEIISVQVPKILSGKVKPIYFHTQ
Procedure: The plate was incubated in a 37° C., 5% CO2 cell incubator for three days. […] A blank control cell well containing 0.5% DMSO was set up. The plate was incubated in a 37° C., 5% CO2 cell incubator for 24 hours. […] The lysate was well mixed by pipetting up and down and then centrifuged at 4000 rpm at 4° C. for 10 minutes. […] The plate was sealed and incubated in a 37° C. incubator for 1 hour. […] The plate was sealed and then incubated in a 37° C. incubator for 30 minutes.

[2] = tested on: LNCaP cells; experiment: Inhibition of LNCaP proliferation (CellTiter-Glo); format: cell-based; details: Homo sapiens, 144 h, 0.1 nM R1881, six days; for Emax: read-out: Max (maximum proliferation inhibition rate)
Procedure: The plate was incubated in a 37° C., 5% CO2 cell incubator for three days. […] A blank control cell well containing 0.5% DMSO and a cell-free vehicle control well were set up. The plate was incubated in a 37° C., 5% CO2 cell incubator for six days.

[3] = 0.1 nM R1881, 24 hours, read-out: LNCaP DC50
[4] = read-out: LNCaP DC50, 0.1 nM R1881, 24 hours

| SMILES | DC50 [1, 3] [nM] | Dmax ([1]; 0.1 nM R1881, 24 hours) [%] | IC50 [2] [nM] | Emax [2] [%] | DC50 [1, 4] [nM] |
| --- | --- | --- | --- | --- | --- |
| Cc1c(N2CCC3(CCN(c4ccc(C(=O)N5CCC(CN6CCN(c7cccc(NC8CCC(=O)NC8=O)c7)CC6)CC5)cc4)CC3)C2)ccc(C#N)c1Cl (racemic) [Example 38, (±)-2-Chloro-4-(8-(4-(4-((4-(3-((2,6-dioxopiperidin-3-yl)amino)phenyl)piperazin-1-yl)methyl)piperidine-1-carbonyl)phenyl)-2,8-diazaspiro[4.5]decan-2-yl)-3-methylbenzonitrile] | 11.7 | 96 | 49 | 60 |  |
| C[C@H]1CC2(CCN(c3ccc(C(=O)N4CCC(N5CCN(c6ccc(C(=O)NC7CCC(=O)NC7=O)c(F)c6)CC5)CC4)cc3)CC2)CN1c1ccc(C#N)c(Cl)c1 (stereo partly drawn) [Example 1, 4-(4-(1-(4-((S)-2-(3-Chloro-4-cyanophenyl)-3-methyl-2,8-diazaspiro[4.5]decan-8-yl)benzoyl)piperidin-4-yl)piperazin-1-yl)-N-(2,6-dioxopiperidin-3-yl)-2-fluorobenzamide] |  | 89 | 183 | 63 | 10.6 |
| C[C@H]1CC2(CCN(c3ccc(C(=O)N4CCC(N5CCN(c6ccc(C(=O)NC7CCC(=O)NC7=O)nc6)CC5)CC4)cc3)CC2)CN1c1ccc(C#N)c(Cl)c1 (stereo partly drawn) [Example 2, 5-(4-(1-(4-((S)-2-(3-Chloro-4-cyanophenyl)-3-methyl-2,8-diazaspiro[4.5]decan-8-yl)benzoyl)piperidin-4-yl)piperazin-1-yl)-N-(2,6-dioxopiperidin-3-yl)picolinamide] |  | 90 | 164 | 62 | 5.1 |
| C[C@H]1CC2(CCN(c3ccc(C(=O)N4CCC(CN5CCN(c6ccc(C(=O)NC7CCC(=O)NC7=O)c(F)c6)CC5)CC4)cc3)CC2)CN1c1ccc(C#N)c(Cl)c1 (stereo partly drawn) [Example 3, 4-(4-((1-(4-((S)-2-(3-Chloro-4-cyanophenyl)-3-methyl-2,8-diazaspiro[4.5]decan-8-yl)benzoyl)piperidin-4-yl)methyl)piperazin-1-yl)-N-(2,6-dioxopiperidin-3-yl)-2-fluorobenzamide] | 22.1 | 89 | 286 | 60 |  |
| C[C@H]1CC2(CCN(c3ccc(C(=O)N4CCC(CN5CCN(c6ccc(C(=O)NC7CCC(=O)NC7=O)nc6)CC5)CC4)cc3)CC2)CN1c1ccc(C#N)c(Cl)c1 (stereo partly drawn) [Example 4, 5-(4-((1-(4-((S)-2-(3-Chloro-4-cyanophenyl)-3-methyl-2,8-diazaspiro[4.5]decan-8-yl)benzoyl)piperidin-4-yl)methyl)piperazin-1-yl)-N-(2,6-dioxopiperidin-3-yl)picolinamide] | 20.2 | 92 | 135 | 58 |  |
| C[C@H]1CC2(CCN(c3ccc(C(=O)N4CC(CN5CCN(c6cccc(NC7CCC(=O)NC7=O)c6)CC5)C4)nn3)CC2)CN1c1ccc(C#N)c(Cl)c1 (stereo partly drawn) [Example 22, 2-Chloro-4-((3S)-8-(6-(3-((4-(3-((2,6-dioxopiperidin-3-yl)amino)phenyl)piperazin-1-yl)methyl)azetidine-1-carbonyl)pyridazin-3-yl)-3-methyl-2,8-diazaspiro[4.5]decan-2-yl)benzonitrile] | 0.4 | 97 |  |  |  |
| C[C@H]1CC2(CCN(c3ccc(C(=O)N4CCC(CN5CCN(c6ccccc6NC6CCC(=O)NC6=O)CC5)CC4)cc3)CC2)CN1c1ccc(C#N)c(Cl)c1 (stereo partly drawn) [Example 39, 2-Chloro-4-((3S)-8-(4-(4-((4-(2-((2,6-dioxopiperidin-3-yl)amino)phenyl)piperazin-1-yl)methyl)piperidine-1-carbonyl)phenyl)-3-methyl-2,8-diazaspiro[4.5]decan-2-yl)benzonitrile] | 13.9 | 86 |  |  |  |
| C[C@H]1CC2(CCN(c3ccc(C(=O)N4CCC(CN5CCN(c6ccc(C(=O)NC7CCC(=O)NC7=O)cc6)CC5)CC4)cc3)CC2)CN1c1ccc(C#N)c(Cl)c1 (stereo partly drawn) [Example 43, 4-(4-((1-(4-((S)-2-(3-Chloro-4-cyanophenyl)-3-methyl-2,8-diazaspiro[4.5]decan-8-yl)benzoyl)piperidin-4-yl)methyl)piperazin-1-yl)-N-(2,6-dioxopiperidin-3-yl)benzamide] | 9.3 | 92 |  |  |  |
